Laboratory results taken from ChEMBL document CHEMBL1201862, “PubChem BioAssay data set” (2004).
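Cells were grown in 96-well plates and exposed to each compound for 48 hours at five concentrations; endpoints were interpolated linearly between bracketing concentrations, or set to the highest concentration if not reached. Abbreviation: GI50, concentration required for 50% inhibition of growth.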 Activity calls are given as the source filed them. Rule as the data show it: active = GI50 up to about 1.1 µM and inactive = higher.

Experiments:
Assay in all cases: inhibition of tumour cell growth, NCI panel, 48 h
[1] = tested on: COLO 205
[2] = tested on: NCI-H522
[3] = tested on: SN12C
[4] = tested on: 786-0
[5] = tested on: OVCAR-5
[6] = tested on: MOLT-4
[7] = tested on: NCI-H226
[8] = tested on: U-251
[9] = tested on: SK-MEL-5
[10] = tested on: IGROV-1
[11] = tested on: HOP-62
[12] = tested on: SNB-19
[13] = tested on: SK-OV-3
[14] = tested on: UACC-62
[15] = tested on: A498
[16] = tested on: SK-MEL-28
[17] = tested on: RPMI-8226

Measured: GI50

CC1(C)OC2OC(/C=C/[N+](=O)[O-])C3OC(C)(C)OC3C2O1 (stereo not given)
inactive: [1] 4.6 µM | [2] 1.77 µM | [3] 15.6 µM | [4] 13.8 µM | [5] 23.2 µM | [6] 3.01 µM | [7] 20.5 µM | [8] 17.3 µM | [9] 16.6 µM | [10] 34.9 µM | [11] 20.7 µM | [12] 18.5 µM | [13] 20.6 µM | [14] 15.1 µM | [15] 20.5 µM | [16] 18.2 µM

COc1cccc(N2C(=O)c3c(c4[nH]c5ccccc5c4c4ccc(C(C)(C)C)cc34)C2=O)c1
inactive: [1] > 100 µM | [2] > 100 µM | [3] > 100 µM | [4] > 100 µM | [5] > 100 µM | [6] 84.7 µM | [7] > 100 µM | [8] > 100 µM | [9] > 100 µM | [10] > 100 µM | [11] > 100 µM | [12] > 100 µM | [13] > 100 µM | [14] > 100 µM | [15] > 100 µM | [16] > 100 µM

CCN(CC)C(=O)CCn1cc(F)c(=O)[nH]c1=O
inactive: [1] > 100 µM | [2] > 100 µM | [3] > 100 µM | [17] > 100 µM | [4] > 100 µM | [5] > 100 µM | [6] > 100 µM | [7] > 100 µM | [8] > 100 µM | [9] > 100 µM | [10] > 100 µM | [11] > 100 µM | [12] > 100 µM | [14] > 100 µM | [16] > 100 µM

CCOC(=O)C1N(S(=O)(=O)c2ccc(C)cc2)CCC12C(c1ccc(OC)c(OC)c1)=Nc1ccccc12 (stereo not given)
inactive: [1] > 100 µM | [2] > 100 µM | [3] > 100 µM | [17] > 100 µM | [4] > 100 µM | [5] > 100 µM | [7] > 100 µM | [8] > 100 µM | [9] > 100 µM | [10] > 100 µM | [11] > 100 µM | [12] > 100 µM | [13] > 100 µM | [14] > 100 µM | [15] > 100 µM | [16] > 100 µM

OCC(O)C(OC1OC(CO)C(O)C(O)C1O)c1nn(-c2ccccc2)c2nc3cc(Cl)c(Cl)cc3cc12 (stereo not given)
inactive: [2] 63 µM | [3] > 100 µM | [17] > 100 µM | [4] > 100 µM | [5] > 100 µM | [6] > 100 µM | [8] > 100 µM | [11] > 100 µM | [12] > 100 µM | [13] > 100 µM | [14] > 100 µM | [15] > 100 µM | [16] > 100 µM

Cc1cccc(C2=NC(C)(C)C(C)(C)N=C2c2cccc(C)n2)n1
inactive: [1] 67.5 µM | [2] > 100 µM | [17] 34.6 µM | [4] > 100 µM | [5] > 100 µM | [7] > 100 µM | [8] > 100 µM | [9] > 100 µM | [10] 38.5 µM | [11] > 100 µM | [12] > 100 µM | [13] > 100 µM | [14] > 100 µM | [15] > 100 µM | [16] > 100 µM

COc1ccc(Nc2nc3c(N)cc(C(F)(F)F)cc3nc2-c2ccccc2)cc1OC
inactive: [1] 55.7 µM | [2] 15.6 µM | [3] 20.2 µM | [4] 12.4 µM | [5] 64.7 µM | [6] 66.7 µM | [7] 24.2 µM | [8] 11.3 µM | [9] 20.4 µM | [10] 22.3 µM | [11] 24.9 µM | [12] 19.8 µM | [13] 12.7 µM | [14] 19.7 µM | [15] 31.8 µM | [16] 26.2 µM

COC(=O)C(=O)C(C(=O)C(=O)Nc1cc(Cl)c(Cl)cc1Cl)c1nc2ccc([N+](=O)[O-])cc2nc1O (stereo not given)
inactive: [1] > 100 µM | [2] 46.9 µM | [3] > 100 µM | [17] > 100 µM | [4] > 100 µM | [5] > 100 µM | [6] > 100 µM | [7] > 100 µM | [8] > 100 µM | [9] > 100 µM | [10] > 100 µM | [12] > 100 µM | [13] > 100 µM | [14] > 100 µM | [16] > 100 µM

NNC(=S)N/N=C/C(=C/Nc1ccccc1)[N+](=O)[O-]
inactive: [1] > 100 µM | [2] > 100 µM | [3] > 100 µM | [17] > 100 µM | [4] > 100 µM | [5] > 100 µM | [7] > 100 µM | [10] > 100 µM | [11] > 100 µM | [12] > 100 µM | [13] > 100 µM | [14] > 100 µM | [16] > 100 µM
